Data reported in PMC7920280, “The Multi-Targeting Ligand ST-2223 with Histamine H3 Receptor and Dopamine D2/D3 Receptor Antagonist Properties Mitigates Autism-Like Repetitive Behaviors and Brain Oxidative Stress in Mice” (International Journal of Molecular Sciences, 2021).

Experiments:
VPA mouse model of ASD = system: VPA mouse model of ASD; set-up: method as in PMID 26074764; details: cited from earlier work
human H3R = biological target: T1, human H3R (Homo sapiens, UniProt Q9Y5N1); assay: [3H]Nα-methylhistamine binding assay, membranes of HEK cells; details: HEK cells stably expressing human H3R, n = 4; read-out: Ki (hH3R)
T1 construct: expressed in transfected cells
Description: (§1) In accordance with previous experimental protocols, the binding affinity of ST-2223 for H3Rs was assessed by applying the [^3H]N^α-methylhistamine binding assay, performed with cell membrane preparation of HEK cells stably expressing the human H3R (n = 4). In addition, and as previously described, the binding affinity of ST-2223 for human dopamine hD1Rs and hD5Rs (HEK) against [^3H]SCH23390 and hD2SRs, hD3Rs (CHO) using [^3H]spiperone (n = 3) was assessed (n = 3).

hH1R = biological target: T2, hH1R (Homo sapiens, UniProt P35367); assay: [3H]pyrilamine binding assay, membranes of CHO cells
T2 construct: expressed in transfected cells

hD2SRs = biological target: T3, hD2SRs (Homo sapiens, UniProt P14416); assay: [3H]spiperone displacement assay, CHO cell membranes; assay type: binding
T3 construct: expressed in transfected cells
Description: as §1

hD3Rs = biological target: T4, hD3Rs (Homo sapiens, UniProt P35462); assay: as above; assay type: binding
T4 construct: expressed in transfected cells
Description: as §1

hD1Rs = biological target: T5, hD1Rs (Homo sapiens, UniProt P21728); assay: [3H]SCH23390 displacement assay, HEK cell membranes; assay type: binding
T5 construct: expressed in transfected cells
Description: as §1

hD5Rs = biological target: T6, hD5Rs (Homo sapiens, UniProt P21918); assay: as above; assay type: binding
T6 construct: expressed in transfected cells
Description: as §1

EeAChE = EeAChE (Electrophorus electricus, UniProt O42275); assay: Acetylcholinesterase inhibition, modified Ellman's method; assay type: biochemical, electric eel; details: 1 μM (1000 nM) of compound; preliminary data
EqBuChE = EqBuChE (Equus caballus, UniProt P81908); assay: Butyrylcholinesterase inhibition, modified Ellman's method; assay type: biochemical, equine; details: 1 μM (1000 nM) of compound; preliminary data, n = 2
EqBuChE, sequence (P81908 whole entry): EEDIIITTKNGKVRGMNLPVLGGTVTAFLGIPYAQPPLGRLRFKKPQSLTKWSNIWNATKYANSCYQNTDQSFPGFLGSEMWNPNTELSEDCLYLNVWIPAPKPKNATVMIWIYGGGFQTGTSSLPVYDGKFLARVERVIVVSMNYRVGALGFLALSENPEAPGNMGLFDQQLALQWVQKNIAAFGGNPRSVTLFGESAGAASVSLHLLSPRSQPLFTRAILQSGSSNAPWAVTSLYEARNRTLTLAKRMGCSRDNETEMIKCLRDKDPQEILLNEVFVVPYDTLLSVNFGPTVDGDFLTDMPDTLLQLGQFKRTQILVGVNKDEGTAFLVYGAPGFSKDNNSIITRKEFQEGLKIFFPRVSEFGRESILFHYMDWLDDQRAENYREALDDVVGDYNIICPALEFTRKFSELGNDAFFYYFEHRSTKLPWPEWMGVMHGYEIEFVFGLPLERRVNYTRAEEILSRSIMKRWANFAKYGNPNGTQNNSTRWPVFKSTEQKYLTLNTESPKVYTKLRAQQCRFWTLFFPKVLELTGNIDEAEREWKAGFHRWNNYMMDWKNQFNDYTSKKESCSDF

T4 sequence (P35462 whole entry): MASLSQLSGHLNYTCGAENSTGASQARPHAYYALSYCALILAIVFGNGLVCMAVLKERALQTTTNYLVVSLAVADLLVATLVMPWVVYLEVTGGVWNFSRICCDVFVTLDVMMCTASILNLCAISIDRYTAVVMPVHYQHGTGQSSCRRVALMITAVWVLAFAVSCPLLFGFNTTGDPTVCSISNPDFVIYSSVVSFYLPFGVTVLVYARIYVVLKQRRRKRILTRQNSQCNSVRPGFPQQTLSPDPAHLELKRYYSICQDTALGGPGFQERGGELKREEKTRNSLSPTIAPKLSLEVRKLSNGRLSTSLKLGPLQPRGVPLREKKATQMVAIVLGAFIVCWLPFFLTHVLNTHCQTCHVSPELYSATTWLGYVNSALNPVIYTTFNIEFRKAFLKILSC
T5 sequence (P21728 whole entry): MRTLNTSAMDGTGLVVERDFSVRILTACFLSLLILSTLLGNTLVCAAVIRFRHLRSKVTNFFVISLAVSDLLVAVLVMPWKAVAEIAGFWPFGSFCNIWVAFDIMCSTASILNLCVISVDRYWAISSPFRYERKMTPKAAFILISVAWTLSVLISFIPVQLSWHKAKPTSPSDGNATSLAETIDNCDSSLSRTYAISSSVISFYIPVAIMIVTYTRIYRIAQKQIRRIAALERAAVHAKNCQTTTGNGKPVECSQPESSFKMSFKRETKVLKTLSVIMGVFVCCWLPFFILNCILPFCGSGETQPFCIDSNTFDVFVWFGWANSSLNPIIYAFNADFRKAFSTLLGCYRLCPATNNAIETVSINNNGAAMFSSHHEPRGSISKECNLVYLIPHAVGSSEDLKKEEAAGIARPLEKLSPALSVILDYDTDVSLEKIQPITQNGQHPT
T1 sequence (Q9Y5N1 whole entry): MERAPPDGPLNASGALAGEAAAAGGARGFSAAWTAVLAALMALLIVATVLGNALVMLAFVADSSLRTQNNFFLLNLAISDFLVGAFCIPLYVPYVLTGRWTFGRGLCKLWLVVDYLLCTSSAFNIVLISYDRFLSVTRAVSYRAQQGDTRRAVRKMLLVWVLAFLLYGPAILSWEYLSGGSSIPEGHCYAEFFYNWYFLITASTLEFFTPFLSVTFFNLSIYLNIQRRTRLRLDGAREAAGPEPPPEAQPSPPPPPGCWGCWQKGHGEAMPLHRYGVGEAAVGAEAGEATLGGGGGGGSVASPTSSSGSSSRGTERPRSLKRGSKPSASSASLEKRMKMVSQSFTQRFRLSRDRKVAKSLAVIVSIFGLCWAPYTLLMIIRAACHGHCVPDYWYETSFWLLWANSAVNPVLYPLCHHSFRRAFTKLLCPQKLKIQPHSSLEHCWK
T6 sequence (P21918 whole entry): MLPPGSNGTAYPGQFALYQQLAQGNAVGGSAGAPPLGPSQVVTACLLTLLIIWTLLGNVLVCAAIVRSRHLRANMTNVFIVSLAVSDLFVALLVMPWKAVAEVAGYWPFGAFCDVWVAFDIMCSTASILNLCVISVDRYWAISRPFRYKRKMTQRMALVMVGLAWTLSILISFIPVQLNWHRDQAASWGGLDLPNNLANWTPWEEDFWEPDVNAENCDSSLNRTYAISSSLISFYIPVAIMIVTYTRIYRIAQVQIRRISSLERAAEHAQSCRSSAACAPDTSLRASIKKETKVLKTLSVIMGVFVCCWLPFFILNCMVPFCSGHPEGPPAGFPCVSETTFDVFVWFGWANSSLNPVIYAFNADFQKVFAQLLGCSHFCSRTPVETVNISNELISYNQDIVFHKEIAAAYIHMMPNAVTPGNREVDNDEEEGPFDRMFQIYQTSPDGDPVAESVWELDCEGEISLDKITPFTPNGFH
T3 sequence (P14416 1-414 isoform P14416-2): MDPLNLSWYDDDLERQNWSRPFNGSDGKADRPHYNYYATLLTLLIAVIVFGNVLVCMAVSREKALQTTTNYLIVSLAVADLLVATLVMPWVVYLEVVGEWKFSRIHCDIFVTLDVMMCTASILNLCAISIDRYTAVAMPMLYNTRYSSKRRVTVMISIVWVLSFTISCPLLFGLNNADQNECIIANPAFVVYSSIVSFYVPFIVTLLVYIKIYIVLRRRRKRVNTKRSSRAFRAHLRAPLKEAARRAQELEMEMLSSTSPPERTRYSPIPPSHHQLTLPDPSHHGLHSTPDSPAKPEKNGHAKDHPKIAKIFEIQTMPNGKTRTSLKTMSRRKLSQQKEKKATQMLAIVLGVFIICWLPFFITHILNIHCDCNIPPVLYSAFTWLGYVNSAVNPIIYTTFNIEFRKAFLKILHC
EeAChE, sequence (O42275 24-633): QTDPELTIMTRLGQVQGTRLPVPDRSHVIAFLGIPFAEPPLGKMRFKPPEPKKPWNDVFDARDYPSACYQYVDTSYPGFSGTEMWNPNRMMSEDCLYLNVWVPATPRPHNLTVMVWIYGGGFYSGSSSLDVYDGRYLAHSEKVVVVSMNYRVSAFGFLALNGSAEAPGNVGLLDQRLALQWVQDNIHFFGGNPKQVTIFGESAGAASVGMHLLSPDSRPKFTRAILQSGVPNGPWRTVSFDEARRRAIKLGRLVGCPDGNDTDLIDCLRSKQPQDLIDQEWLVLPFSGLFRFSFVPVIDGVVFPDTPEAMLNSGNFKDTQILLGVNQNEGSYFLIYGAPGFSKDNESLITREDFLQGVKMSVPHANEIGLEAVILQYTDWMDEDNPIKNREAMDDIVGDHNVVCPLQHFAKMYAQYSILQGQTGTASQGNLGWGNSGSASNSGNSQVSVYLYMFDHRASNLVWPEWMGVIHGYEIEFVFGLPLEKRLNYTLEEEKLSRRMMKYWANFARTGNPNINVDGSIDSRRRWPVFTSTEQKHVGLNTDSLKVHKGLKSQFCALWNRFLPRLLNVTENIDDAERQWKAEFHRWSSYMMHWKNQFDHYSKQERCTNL
T2 sequence (P35367 whole entry): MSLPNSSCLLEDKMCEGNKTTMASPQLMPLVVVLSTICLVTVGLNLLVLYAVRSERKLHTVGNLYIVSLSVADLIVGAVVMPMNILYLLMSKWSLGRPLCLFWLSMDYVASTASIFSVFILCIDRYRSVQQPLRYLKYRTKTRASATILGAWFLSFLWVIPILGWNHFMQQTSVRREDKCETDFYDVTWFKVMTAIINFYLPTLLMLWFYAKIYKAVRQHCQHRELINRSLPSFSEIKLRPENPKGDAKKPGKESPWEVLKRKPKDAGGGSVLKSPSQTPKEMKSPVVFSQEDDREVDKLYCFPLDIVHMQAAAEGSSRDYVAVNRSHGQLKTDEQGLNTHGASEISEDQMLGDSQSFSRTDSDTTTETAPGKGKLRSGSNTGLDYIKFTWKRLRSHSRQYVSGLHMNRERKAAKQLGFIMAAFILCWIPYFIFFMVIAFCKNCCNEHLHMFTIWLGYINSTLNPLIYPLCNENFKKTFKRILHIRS

Row | SMILES | social deficits and repetitive behaviors (self-grooming, jumping) (VPA mouse model of ASD) | Ki (human H3R) [nM] | Ki (hH1R) [nM] | Ki (hD2SRs) [nM] | Ki (hD3Rs) [nM] | hD2R/hD3R ratio of Ki values (hD3Rs; preference for hD3R) | Ki (hD1Rs) [nM] | Ki (hD5Rs) [nM] | inhibition at 1 µM (EeAChE) [%] | inhibition at 1 µM (EqBuChE) [%]
1 | CC12CC3CC(C)(C1)CC(N)(C3)C2 [MEM, memantine] | rescued |  |  |  |  |  |  |  |  | 
2 | COc1ccccc1N1CCN(CCCCNC(=O)c2ccc3cc(OCCCN4CCCCC4)ccc3c2)CC1 [ST-2223, N-(4-(4-(2-methoxyphenyl)piperazin-1-yl)butyl)-6-(3-(piperidin-1-yl)propoxy)-2-naphthamide] |  | 4.8 | 85.2 | 19.8 | 2 | 10 | 564 | 5060 | < 60 | < 30
